In PubChem BioAssay (NCI):
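Protocol summary: plate cells (96-well), add compound at 5 concentrations, incubate 48 h, interpolate endpoints linearly. The concentration for 50% growth inhibition is given as GI50. TGI marks complete inhibition of growth.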

What was measured:
Test in all cases: DTP human tumour cell line panel, 48 h
RPMI-8226 leukemia = system: RPMI-8226 leukemia
786-0 renal = system: 786-0 renal
DU-145 prostate = system: DU-145 prostate
LOX IMVI melanoma = system: LOX IMVI melanoma
SF-295 CNS = system: SF-295 CNS
CCRF-CEM leukemia = system: CCRF-CEM leukemia
ACHN renal = system: ACHN renal
UACC-257 melanoma = system: UACC-257 melanoma
UACC-62 melanoma = system: UACC-62 melanoma
HT29 colon = system: HT29 colon
MALME-3M melanoma = system: MALME-3M melanoma
MDA-MB-435 = system: MDA-MB-435
RXF 393 renal = system: RXF 393 renal
SNB-19 CNS = system: SNB-19 CNS
NCI-H522 lung = system: NCI-H522 lung
SK-OV-3 ovarian = system: SK-OV-3 ovarian
SN12C renal = system: SN12C renal
MCF7 breast = system: MCF7 breast
UO-31 renal = system: UO-31 renal
OVCAR-4 ovarian = system: OVCAR-4 ovarian
SK-MEL-2 melanoma = system: SK-MEL-2 melanoma
MDA-MB-231 breast = system: MDA-MB-231 breast
OVCAR-5 ovarian = system: OVCAR-5 ovarian
A549 NSCLC = system: A549 NSCLC
SNB-75 CNS = system: SNB-75 CNS
NCI/ADR-RES ovarian = system: NCI/ADR-RES ovarian
CAKI-1 renal = system: CAKI-1 renal

What does the source list for `CC1(C)CC[C@]23CC[C@]4(C)[C@H](CC[C@@H]5[C@@]6(C)CCCN(CO)C(C)(C)[C@@H]6CC[C@]54C)[C@H]2[C@H]1OC3`?
GI50 (RPMI-8226 leukemia): 2.88 µM; TGI (RPMI-8226 leukemia): > 100 µM; GI50 (786-0 renal): 1.84 µM; TGI (786-0 renal): 3.4 µM; GI50 (DU-145 prostate): 3 µM; TGI (DU-145 prostate): 8.95 µM; GI50 (LOX IMVI melanoma): 1.57 µM; TGI (LOX IMVI melanoma): 2.93 µM; GI50 (SF-295 CNS): 1.96 µM; TGI (SF-295 CNS): 3.77 µM; GI50 (CCRF-CEM leukemia): 3.49 µM; TGI (CCRF-CEM leukemia): > 100 µM; GI50 (ACHN renal): 1.87 µM; TGI (ACHN renal): 3.6 µM; GI50 (UACC-257 melanoma): 10.6 µM; TGI (UACC-257 melanoma): 24.6 µM; GI50 (UACC-62 melanoma): 4.83 µM; TGI (UACC-62 melanoma): 17.8 µM; GI50 (HT29 colon): 1.86 µM; TGI (HT29 colon): 3.86 µM; GI50 (MALME-3M melanoma): 2.64 µM; TGI (MALME-3M melanoma): 8.69 µM; GI50 (MDA-MB-435): 2.4 µM; TGI (MDA-MB-435): 6.67 µM; GI50 (RXF 393 renal): 3.27 µM; TGI (RXF 393 renal): 18 µM; GI50 (SNB-19 CNS): 3.09 µM; TGI (SNB-19 CNS): 12 µM; GI50 (NCI-H522 lung): 15.9 µM; TGI (NCI-H522 lung): 31.7 µM; GI50 (SK-OV-3 ovarian): 13.9 µM; TGI (SK-OV-3 ovarian): 27.7 µM; GI50 (SN12C renal): 4.89 µM; TGI (SN12C renal): 18.6 µM; GI50 (MCF7 breast): 2.2 µM; TGI (MCF7 breast): 5.64 µM; GI50 (UO-31 renal): 9.62 µM; TGI (UO-31 renal): 23.6 µM; GI50 (OVCAR-4 ovarian): 3.42 µM; TGI (OVCAR-4 ovarian): 13.4 µM; GI50 (SK-MEL-2 melanoma): 2.5 µM; TGI (SK-MEL-2 melanoma): 7.68 µM; GI50 (MDA-MB-231 breast): 1.96 µM; TGI (MDA-MB-231 breast): 4.5 µM; GI50 (OVCAR-5 ovarian): 2.44 µM; TGI (OVCAR-5 ovarian): 6.7 µM; GI50 (A549 NSCLC): 2.76 µM; TGI (A549 NSCLC): 8.98 µM; GI50 (SNB-75 CNS): 5.02 µM; TGI (SNB-75 CNS): 19.6 µM; GI50 (NCI/ADR-RES ovarian): 2.02 µM; TGI (NCI/ADR-RES ovarian): 4.6 µM; GI50 (CAKI-1 renal): 1.54 µM; TGI (CAKI-1 renal): 3.3 µM
